Patent US5789602A, “Physiologically active substances PF1092A, PF1092B and PF1092C, process for the production thereof, and contraceptives and anticancer drugs containing the same as active ingredients” (Meiji Seika Kaisha, Ltd., priority 1995, dated 1998)
Entries after “also recorded” stand apart in the source; their conditions may differ.

Columns and labels:
[1] = Solubility (physico-chemical properties); format: physicochemical; details: qualitative, in organic solvents and in water
progesterone receptor = target: T1, progesterone receptor (Sus scrofa, UniProt D0EWS6); experiment: progesterone receptor binding activity (3H-progesterone, hog uterus cytosol); parameters: species or system hogs; details: 1 h, 30 μM test substance, 4° C., 60 minutes, read-out: inhibition of the binding of 3H-progesterone to the progesterone receptor (inhibition ratio)
T1 construct: from tissue; host or cells: hog uterus, cytosol (100,000×g supernatant)
T1 sequence (D0EWS6 1-934): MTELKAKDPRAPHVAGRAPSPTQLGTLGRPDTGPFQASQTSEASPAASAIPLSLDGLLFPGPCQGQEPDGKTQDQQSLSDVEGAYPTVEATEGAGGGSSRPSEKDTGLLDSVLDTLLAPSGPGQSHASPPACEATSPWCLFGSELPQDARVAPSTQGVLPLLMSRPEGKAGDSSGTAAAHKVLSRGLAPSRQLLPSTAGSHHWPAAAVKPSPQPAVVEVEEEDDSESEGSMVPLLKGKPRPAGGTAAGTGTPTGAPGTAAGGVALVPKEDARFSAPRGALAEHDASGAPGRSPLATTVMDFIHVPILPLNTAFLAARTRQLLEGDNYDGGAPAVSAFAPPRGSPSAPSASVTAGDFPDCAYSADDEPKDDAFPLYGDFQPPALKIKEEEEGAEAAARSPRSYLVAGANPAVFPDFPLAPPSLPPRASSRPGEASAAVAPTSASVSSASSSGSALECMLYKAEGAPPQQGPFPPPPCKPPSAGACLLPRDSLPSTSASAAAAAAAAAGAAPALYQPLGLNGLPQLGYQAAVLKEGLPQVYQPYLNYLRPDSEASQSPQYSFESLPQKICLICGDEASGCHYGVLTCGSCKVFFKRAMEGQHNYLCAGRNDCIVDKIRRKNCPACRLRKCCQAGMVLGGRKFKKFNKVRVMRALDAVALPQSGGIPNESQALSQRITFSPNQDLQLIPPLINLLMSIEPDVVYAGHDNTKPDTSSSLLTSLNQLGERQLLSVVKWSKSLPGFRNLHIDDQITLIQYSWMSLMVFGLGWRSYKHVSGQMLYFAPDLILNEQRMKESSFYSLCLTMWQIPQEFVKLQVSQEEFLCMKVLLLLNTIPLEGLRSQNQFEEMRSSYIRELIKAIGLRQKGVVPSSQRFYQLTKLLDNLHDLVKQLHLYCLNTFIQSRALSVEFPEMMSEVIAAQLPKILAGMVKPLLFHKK
Experimental: The progesterone receptor binding activity of substance PF1092A, substance PF1092B and substance PF1092C of the present invention was measured in the following manner in accordance with the method of H. Kondo et al. (J. Antibiotics, vol. 43, pp. 1533-1542, 1990). That is, uteri taken from hogs in 5 mM phosphate buffer were disrupted using Polytron homogenizer, and the resulting solution was subjected to centrifugation (100,000×g, 30 minutes) to separate the supernatant fluid which was used as the cytosol containing progesterone receptor.
In the assay of progesterone receptor binding activity, 40 μl of a solution of ^3 H-progesterone as a ligand of the receptor (3.84 TBq/mmol, 18.5 kBq/ml), 50 μl of the just obtained cytosol (2-3 mg protein/ml), 30 μM of substance PF1092A, substance PF1092B and substance PF1092C and 30 μM of medroxyprogesterone acetate (MPA) were put into a test tube and incubated at 4° C. for 60 minutes to effect the reaction and then mixed with 100 μl of 0.5% activated carbon solution. After 10 minutes of standing, this was subjected to centrifugation (2,000×g, 10 minutes), and radioactivity of the thus obtained supernatant fluid was measured using a liquid scintillation counter. Inhibition ratio was calculated based on the following formula in which radioactivity with no addition of the test drug was defined as the amount of total binding to the cytosol and radioactivity with the addition of MPA was defined as the amount of non-specific binding. [formula]

Compound | Solubility [1] | inhibition at 30 µM (progesterone receptor)
CC(=O)OC1C(O)C=C2C=C3OC(=O)C(C)=C3CC2(C)C1C (stereo not drawn) [PF1092A] | soluble in chloroform, acetone, ethyl acetate, methanol and dimethyl sulfoxide, and insoluble in water and hexane | ≥ 90%
CC(=O)OC1C=C2C=C3OC(=O)C(C)=C3CC2(C)C(C)C1O (stereo not drawn) [PF1092B] | soluble in chloroform, acetone, ethyl acetate, methanol and dimethyl sulfoxide, and insoluble in water and hexane | ≥ 90%
CC1=C2CC3(C)C(=CC(O)C(O)C3C)C=C2OC1=O (stereo not drawn) [PF1092C] | soluble in chloroform, acetone, ethyl acetate, methanol and dimethyl sulf oxide, and insoluble in water and hexane; also recorded: soluble in chloroform, acetone, ethyl acetate, methanol and dimethyl sulfoxide, and insoluble in water and hexane | ~70%
